In data set [1] the test system is DU-145 cells. Description: Colony formation assay. Type of data set: cell-based, human. The settings on record: 24 h treatment, 10 days growth. On the procedure: DU-145 cells were seeded in 6-well plates at a density of 1000 cells/well and allowed to incubate overnight. Then, the cells were treated with varying concentrations of AQQ1 (1, 2.5, and 5 µM) along with negative control and 2.5 µM DOXO for 24 h. After a medium refreshment, the cells were allowed to grow for 10 days. After incubation, the colonies are fixed with cold methanol for 5 min and then stained with a 0.5% crystal violet solution (prepared in 10% methanol) for 20 min. The plates were allowed to air-dry and the colonies were counted manually.

Data set [2] can be described thus: Log D (experimental, n-octanol). The settings on record: n-octanol (aqueous phase not stated). Type of data set: physicochemical.
The nature of data set [3]: In vivo bioavailability / pharmacokinetic study IV and PO. Particulars: rat; for AUC(0-inf) / AUC(0-t) / C0 / MRT last / Vd / clearance / half-life / Cmax / Tmax: male, Sprague-Dawley, whole blood; for Tmax: median. More on the design: species or system male Sprague-Dawley rats. On the procedure: Using the validated Phoenix® WinNonlin® 8.3 NCA tool Version 8 or higher (Certara L.P.), USA, pharmacokinetic parameters were computed. As appropriate, Cmax, Tmax, and exposures (AUCinfinity and AUClast) were calculated. Furthermore, pharmacokinetic characteristics such as distribution volume (Vd), […] (CL), elimination half-life (T1/2), and parenteral route like (C0) were evaluated. Using dose-normalized non-intravenous exposure versus dose-normalized intravenous exposure, oral bioavailability (F%) was computed (Table 5).
S2.2. In vivo Bioavailability Study of AQQ1 and AQQ2 in Male Sprague-Dawley Rats Sprague-Dawley rats (HyLasco Biotechnology (India) Pvt. Ltd., a subsidiary of Charles River from the US) of 8-12 weeks of age (at the time of treatment), weighing between 220 and 320 g, […]
Housing: Animals were housed in polysulfonate cages in a typical research laboratory environment at 25 ± 3°C and 50%-70% relative humidity with approximately 12 h light and dark cycles maintained with an enrichment device. During the study, the animals had access to a rat maintenance diet (Altromin Spezialfutter GmbH, Germany) and purified water (UV-treated, […]
Animal experiments were conducted in accordance with the guidelines of the Committee for the Purpose of Control and Supervision of Experiments on Animals (CPCSEA), Ministry of […], Government of India, and approved by the Institutional Animal Ethics Co m m i tt e e . […] AQQ1 a n d AQQ2 in NMP (10%) + PBS (pH 7.4) qs was administered intravenously at a dose of 1 mg/kg bw (10 mL/kg). AQQ1 and AQQ2 in NMP (10%) + Cremophor EL (5%) + PEG400 (30%) + PG (20%) + PBS (pH 7.4) qs was administered PO at a dose of 5 mg/kg bw (10 mL/kg). The animal weight on the day of dosing was used to calculate the required volume of the formulation and administered to the rats.
After dosing, blood samples (~0.250 mL) were collected from the jugular vein at the following time points: 0.083 (IV only), 0.25, 0.5, 1, 2, 4, 6, 8, and 24 h using a serial sampling design (equal volumes of heparinized saline were replaced after each sample collection). The samples were collected in pre-labeled microcentrifuge tubes containing K2EDTA (20 μL of 200 mM solution […]
per mL of blood) as an anticoagulant. The blood samples were stored at -60°C until bioanalysis using the fit-for-purpose LC-MS/MS method. Pharmacokinetic parameters were calculated using the non-compartmental analysis (NCA) tool of the validated Phoenix® WinNonlin® 8.3.
Group Treatment/Route Dose (mg/kg) Dose volume (mL/kg) Stregth

The subject of data set [4] is DU-145 cells. Kind of data set: Apoptosis necrosis analysis (Annexin V-FITC / PI flow cytometry). Type of data set: cell-based, human. The settings on record: 1, 2.5, 5 µM, 24 h. On the procedure:
To assess cellular apoptosis and necrosis, a fluorochrome-labelled Annexin V (FITC) and Propidium Iodide (PI) staining kit (SONY Biotechnology, San Jose, CA, USA) was used according to the manufacturer’s protocol. DU-145 cells were initially seeded at a density of 1 × 10^6 cells per well in 6-well plates. After an incubation period, the cells were treated with varying concentrations of AQQ1 (1, 2.5, and 5 µM) along with negative control for 24 h. Then, the cells were detached using trypsin and then suspended in 500 µL of 1× Binding Buffer. Subsequently, 3 µL of Propidium Iodide (PI) and 5 µL of Annexin V-FITC were added to the cell suspension, followed by a 15 min incubation at room temperature in the dark. Post-incubation, cell analysis was performed via flow cytometry using the BD FACS Calibur Flow Cytometry System. The percentages of apoptotic and necrotic cells were determined using BD CellQuest Pro Software version 5.1 (both from Becton Dickinson, Sunnyvale, CA, USA).

Data set [5] is described as follows: In vitro metabolic stability. Type of data set: in vitro ADME, rat (Sprague-Dawley). The settings on record: Rat liver microsomes; for % Metabolism in 30 min: 0.5 µM, 0.5 mg/mL protein; for half-life at 0.5 µM / microsomal CLint at 0.5 µM: male, Sprague-Dawley, pH 7.4. On the procedure: S2. ADME and PK Profiling
S2.1. In vitro Metabolic Stability Study […]
metabolic stability of AQQ1 and AQQ2. A final protein (liver microsomal) concentration of 0.5 mg/mL and final test substance (AQQ1 and AQQ2) concentration of 0.5 µM were used for the study. To the respective microsomes at a volume of 12.5 µL in the well, 2.5 µL of test substance ([…] in acetonitrile: dimethyl sulfoxide, 96:4) in the presence and absence of NADPH (50 µL, 10 mM) were added and the final volume made up to 500 µL with sodium phosphate buffer (50 mM, pH 7.4). The one without NADPH served as control. Sampling (50 µL) were done at the following time points: 0, 5, 10, 15, and 30 min for sample and at 0 and 30 min for control.
Acetonitrile (150 µL) was used as quenching solvent, internal standard (Rolipram) was added, vortexed/centrifuged and the aliquot from the supernatant was analyzed using LC-MS/MS. All the experiments were performed in duplicate.

The test system of data set [6] is DU-145 cells. Description: Scratch assay (cell migration). Type of data set: cell-based. The settings on record: Homo sapiens, 24 h, read-out: DU-145 cell migration inhibited. On the procedure: DU-145 cells were grown in 6-well plates until they reached confluence. A straight-line scratch was then carefully created in the cell layer using a sterile pipette tip. The medium was replaced to remove any detached cells. The cells were treated with varying concentrations of AQQ1 (1, 2.5, and 5 µM) along with negative control for 24 h and the cells were allowed to migrate into the denuded area. The brightfield images were taken under the microscope at 0 h and over 24 h. The extent of wound closure is quantified by measuring the change in the width of the scratch with Fiji Image J wound healing size macro [20].

As to `COc1ccccc1NC1=C(Cl)C(=O)c2nc(C)ccc2C1=O` [AQQ1], the colony-forming ability result in the data set with DU-145 cells [1] was “significantly reduced the colony-forming ability”. This compound also registered a logD in data set [2] of 2.37. Further, in data set [3] (IV 1 mg/kg), the AUC(0-inf) came out at 115 ± 45.7 ng·h/mL, the area under the curve AUC(0-t) was determined as 77.5 ± 9.81 ng·h/mL, the C0 amounted to 90.8 ± 71.3 ng/mL and the MRT last turned out to be 3.77 ± 0.279 h. In addition, in data set [3] (IV 1 mg/kg), the Vd was determined as 90.3 ± 40 L/kg, the clearance was determined as 161 ± 62.9 mL/min/kg, the half-life was 9.35 ± 8.75 h and the “plasma clearance relative to normal hepatic blood flow of rats” value is “approximately 2.93 fold”. Also, in data set [3] (PO 5 mg/kg), the area under the curve AUC(0-inf) amounted to 4000 ± 179 ng·h/mL, the AUC(0-t) was 3810 ± 111 ng·h/mL, the highest concentration (Cmax) was found to be 435 ± 18.1 ng/mL and the mean residence time MRT last is 7.47 ± 0.367 h. In data set [3] (PO 5 mg/kg), the half-life is 5.22 ± 0.843 h and the Tmax came to 0.5 h. In addition, the “live and necrotic cell counts” value in the data set with DU-145 cells [4] was “reduced live cell counts and increased necrotic cells”. In addition, in data set [5], the “% Metabolism in 30 min” value came out at 100%, the half-life at 0.5 µM is 2 min and the intrinsic metabolic clearance (microsomal CLint) at 0.5 µM was found to be 656 µL/min/mg. In addition, the inhibition at 1 µM with DU-145 cells [6] (1 μM) was found to be 13.4%. In addition, the inhibition at 2.5 µM in the data set with DU-145 cells [6] (2.5 μM) turned out to be 23.7%. Besides, the inhibition at 5 µM in the data set with DU-145 cells [6] (5 μM) was found to be 49.8%.
`CCOc1ccccc1NC1=C(Cl)C(=O)c2nc(C)ccc2C1=O` [AQQ2] yielded a logD in data set [2] of 2.35. Besides, in data set [3] (IV 1 mg/kg), the total exposure AUC(0-inf) worked out at 110 ± 18.1 ng·h/mL, the AUC(0-t) is 77 ± 21 ng·h/mL, the C0 came to 23.2 ± 12.8 ng/mL and the MRT last is 6.84 ± 1.84 h. In data set [3] (IV 1 mg/kg), the Vd was 147 ± 9.71 L/kg, the clearance came out at 154 ± 26.9 mL/min/kg, the half-life was 12.8 ± 2.95 h and the “plasma clearance relative to normal hepatic blood flow of rats” value is “approximately 2.8 fold”. Further, the “volume of distribution relative to 0.7 L/kg total body fluids” value in data set [3] (IV 1 mg/kg) is “approximately 210 fold”. Moreover, in data set [3] (PO 5 mg/kg), the AUC(0-inf) was 2370 ± 375 ng·h/mL, the AUC(0-t) is 2300 ± 416 ng·h/mL, the peak level (Cmax) was 282 ± 79.4 ng/mL and the MRT last turned out to be 6.61 ± 0.787 h. Also, in data set [3] (PO 5 mg/kg), the half-life was 4.72 ± 1.16 h and the time to peak (Tmax) was determined as 1 h. Further, in data set [5], the “% Metabolism in 30 min” value is 100%, the half-life at 0.5 µM worked out at 3 min and the intrinsic clearance (microsomal CLint) at 0.5 µM amounted to 501 µL/min/mg.
